The results in this text go back to patent US20260226037A1, “MICROTUBULE TARGETING AGENTS” (ARIEL SCIENTIFIC INNOVATIONS LTD., priority 2022, published 2026).

As a reminder, the IC50 is the concentration at which inhibition is half-maximal.

Holding throughout (type): cell-based
One test has as its system MES-SA/DX5 cells. The test can be described thus: XTT cytotoxicity, MES-SA/DX5. The following applies: for effectiveness in subline overexpressing PgP: MES-SA/DX5 vs MES-SA; for IC50: MES-SA/DX5, uterine sarcoma, P-gp overexpression; for IC50 ratio between resistant and non-resistant cells: MES-SA/DX5 / MES-SA. As for the experimental part:
(§1) The cytotoxic activity of the novel family was evaluated against various tumor cells, including myeloma cells, acute lymphoblastic leukemia cells, acute monocytic leukemia cells, chronic myelogenous leukemia cells, pancreatic cancer cells, breast cancer cells, uterine sarcoma cells, cervix adenocarcinoma cells, ovary cancer cells, melanoma cells, osteosarcoma cells, prostate cancer cells, lung cancer cells, neuroblastoma cells and colorectal adenocarcinoma cells by XTT assay.
In general terms: Tetrazolium dyes change colour on reduction, which living cells bring about.

The next test deals with RPMI-LR5 cells. The test can be described thus: XTT cytotoxicity, RPMI-LR5. The following applies: for IC50: RPMI-LR5, multiple myeloma, melphalan resistant, read-out: IC50; for IC50 ratio between resistant and non-resistant cells: RPMI-LR5 / RPMI 8226. As for the experimental part:
as §1

The test system of another test is MM1.S cells. Description: XTT cytotoxicity, MM1.S. The following applies: multiple myeloma, non-resistant, read-out: IC50. On the procedure:
as §1

For the next test, the system named is MCF7-VP cells. The test can be described thus: XTT cytotoxicity, MCF7-VP. The following applies: for IC50: MCF7-VP, breast adenocarcinoma, MRP overexpression; for IC50 ratio between resistant and non-resistant cells: MCF7-VP / MCF7. As for the experimental part:
as §1

Test [1] relates to colchicine binding site on tubulin protein. Description: EBI competition assay, RPMI-8226 cells. Particulars: RPMI-8226 living cells.
In a further test the test system is NALM6 cells. Description: XTT cytotoxicity, NALM6. The following applies: NALM6, acute lymphoblastic leukemia, non-resistant, read-out: IC50. As for the experimental part: as §1
(§2) Most tubulin-binding anticancer drugs currently used in the clinic are substrates for Pgp effux pump. […] The inventors tested the viability of NALM6 acute lymphoblastic leukemia cell line (ALL) and its corresponding doxorubicin resistant N6/ADR cell line that overexpress Pgp glycoprotein and has cross-resistance to vincristine.

A further test concerns MES-SA cells. Description: XTT cytotoxicity, MES-SA. Particulars: poorly differentiated uterine sarcoma, non-resistant. On the procedure: as §1
For another test, the system named is RPMI-DOX40 cells. Description: XTT cytotoxicity, RPMI-DOX40. The following applies: for IC50: RPMI-DOX40, multiple myeloma, P-gp overexpression, read-out: IC50; for IC50 ratio between resistant and non-resistant cells: RPMI-DOX40 / RPMI 8226. On the procedure:
as §1

The next test deals with RPMI-MR20 cells. The test can be described thus: XTT cytotoxicity, RPMI-MR20. The following applies: for IC50: RPMI-MR20, mitoxantrone resistant, read-out: IC50; for IC50 ratio between resistant and non-resistant cells: RPMI-MR20 / RPMI 8226. As for the experimental part:
as §1

The next test has as its system MM1.R cells. Description: XTT cytotoxicity, MM1.R. Particulars: for IC50: MM1.R, multiple myeloma, dexamethasone resistant, read-out: IC50; for IC50 ratio between resistant and non-resistant cells: MM1.R / MM1.S. As for the experimental part: as §1
The subject of a further test is N6/ADR cells. Description: XTT cytotoxicity, N6/ADR. Particulars: for IC50 ratio between resistant and non-resistant cells: N6/ADR / NALM6; for IC50: N6/ADR, acute lymphoblastic leukemia, P-gp overexpression, read-out: IC50. As for the experimental part: as §1, §2
Another test deals with RPMI 8226 cells. The test can be described thus: XTT cytotoxicity, RPMI 8226. The following applies: RPMI 8226, multiple myeloma, non-resistant, read-out: IC50. On the procedure: as §1
The next test concerns MCF7 cells. Description: XTT cytotoxicity, MCF7. The following applies: MCF7, breast adenocarcinoma, non-resistant. On the procedure:
as §1

The subject of a further test is RPMI8226 cells. Description: Cell cycle distribution by flow cytometry. Particulars: 6 hours; IC50, IC50x2.5 and IC50x5 concentrations. On the procedure: Cell cycle arrest is a shared consequence of MTAs treatment. The effects of cell cycle distribution were determined in RPMI8226 cells treated for 6 and 18 hours with a range of concentrations of the molecules. The cells were stained with propidium iodide and cell cycle distribution was measured using a cytoFLEX flow cytometer.

The next test relates to A2780 cells. The test can be described thus: XTT cytotoxicity, A2780. Particulars: A2780, ovarian carcinoma, non-resistant. On the procedure:
as §1

The test system of the next test is NCI-H69 cells. Description: XTT cytotoxicity, NCI-H69. Particulars: NCI-H69, small cell lung carcinoma, non-resistant. On the procedure:
as §1

The next test has as its system NCI-H69 VCR/R cells. The test can be described thus: XTT cytotoxicity, NCI-H69 VCR/R. The following applies: for IC50: NCI-H69 VCR/R, vincristine resistant; for IC50 ratio between resistant and non-resistant cells: NCI-H69 VCR/R / NCI-H69. As for the experimental part:
as §1

The test system of the next test is A2780ADR cells. Description: XTT cytotoxicity, A2780ADR. The following applies: for IC50 ratio between resistant and non-resistant cells: A2780ADR / A2780; for IC50: A2780ADR, ovarian carcinoma, resistant. On the procedure: as §1

Where two headings read alike, the source gives them in different places.

In the case of `COc1cc2c(c(OC)c1OC)-c1ccc(OC)c(=O)cc1[C@@H](NC(C)=O)CC2` [Colchicine], in the test with MES-SA/DX5 cells, the “effectiveness in subline overexpressing PgP” value is “less effective in the subline overexpressing PgP”.

`CCCCCOC(=O)c1[nH]c2c(c1C)C(=O)CC(c1ccco1)C2` (centres unmarked) [SMS001, reference compound]: the IC50 came out at 29 nM in the test on RPMI-LR5 cells; 63 nM in the test with MM1.S cells (Homo sapiens); 469 nM in the test with MCF7-VP cells (Homo sapiens); 37 nM in the test with NALM6 cells (Homo sapiens, NALM-6); 203 nM in the test with MES-SA cells (Homo sapiens); 34 nM in the test with RPMI-DOX40 cells. The IC50 in the test on RPMI-MR20 cells came to 35 nM; in the test on MM1.R cells (MM.1R) it was 69 nM; in the test on MES-SA/DX5 cells (Homo sapiens), 49 nM; in the test with N6/ADR cells, 37 nM; with RPMI 8226 cells (Homo sapiens) it was 40 nM; in the test on MCF7 cells (Homo sapiens), 350 nM. The “IC50 ratio between resistant and non-resistant cells” value with RPMI-LR5 cells came out at 0.725; with MCF7-VP cells, 1.340; in the test with RPMI-DOX40 cells, 0.850; in the test on RPMI-MR20 cells it was 0.875; in the test on MES-SA/DX5 cells, 0.241; in the test with N6/ADR cells it was 1.000. Moreover, the “prevention of covalent binding of EBI to the colchicine binding site” value (“prevention of covalent binding of EBI” below) in test [1] was “prevented the covalent binding of EBI to the colchicine binding site”.

As to `CCCCCOC(=O)c1[nH]c2c(c1C)C(=O)CN(c1ccccc1)C2` [SMS078, Pentyl 3-methyl-4-oxo-6-phenyl-4,5,6,7-tetrahydro-1H-pyrrolo[2,3-c]pyridine-2-carboxylate], the IC50 stood at 178 nM in the test with NALM6 cells (Homo sapiens, NALM-6); 489 nM with RPMI-DOX40 cells; 165 nM in the test on N6/ADR cells; 210 nM with RPMI 8226 cells (Homo sapiens). For the same compound, the “IC50 ratio between resistant and non-resistant cells” value in the test on RPMI-DOX40 cells is reported as 2.329; in the test on N6/ADR cells, 0.927.

In the case of `Cc1c(C(=O)OCCCCN)[nH]c2c1C(=O)CC(c1ncco1)C2.Cl.Cl` (centres unmarked) [SMS088, 4-ami0butyl-3-methyl-6-(oxazol-2-yl)-4-oxo-4,5,6,7-tetrahydro-1H-indole-2-carboxylate dihydrogen chloride], the half-inhibitory concentration (IC50) was 1430 nM with RPMI-LR5 cells; 1100 nM in the test on MM1.S cells; 7300 nM with MCF7-VP cells; 56 nM in the test with NALM6 cells; 2200 nM in the test on MES-SA cells; 1350 nM with RPMI-DOX40 cells. Also, the IC50 with RPMI-MR20 cells was more than 1800 nM; with MM1.R cells, 1020 nM; in the test on MES-SA/DX5 cells it was 5260 nM; in the test on N6/ADR cells, 62 nM; in the test on RPMI 8226 cells, 1610 nM; with MCF7 cells, 5840 nM. Also, the “IC50 ratio between resistant and non-resistant cells” value in the test on RPMI-LR5 cells is reported as 0.885; with MCF7-VP cells, 1.251; with RPMI-DOX40 cells, 0.839; in the test on RPMI-MR20 cells, more than 1.116; in the test on MM1.R cells, 0.934; with MES-SA/DX5 cells it was 2.391. In the test with N6/ADR cells, the “IC50 ratio between resistant and non-resistant cells” value came out at 1.107. In the test with RPMI8226 cells, the cell cycle arrest result was “cell cycle arrest in G2M phase”. For the same compound, the “prevention of covalent binding of EBI” value in test [1] was “prevented the covalent binding of EBI to the colchicine binding site”.

As to `CCCCCOC(=O)c1[nH]c2c(c1C)C(=O)CC(c1nccs1)C2` (centres unmarked) [SMS213, pentyl-3-methyl-4-oxo-6-(thiazol-2-yl)-4,5,6,7-tetrahydro-1H-indole-2-carboxylate], the IC50 turned out to be 60 nM with RPMI-LR5 cells; 124 nM in the test with MM1.S cells (Homo sapiens); 513 nM in the test with MCF7-VP cells (Homo sapiens); 107 nM with NALM6 cells (Homo sapiens, NALM-6); 120 nM in the test on MES-SA cells (Homo sapiens); 68 nM with RPMI-DOX40 cells. The IC50 in the test on RPMI-MR20 cells was 79 nM; with MM1.R cells (MM.1R), 147 nM; in the test on MES-SA/DX5 cells (Homo sapiens), 139 nM; in the test on N6/ADR cells, 109 nM; in the test with RPMI 8226 cells (Homo sapiens), 92 nM; in the test with MCF7 cells (Homo sapiens), 243 nM. In addition, the “IC50 ratio between resistant and non-resistant cells” value is on record as 0.652 in the test with RPMI-LR5 cells; 2.114 in the test with MCF7-VP cells; 0.739 with RPMI-DOX40 cells; 0.859 in the test with RPMI-MR20 cells; 1.185 in the test on MM1.R cells; 1.158 in the test on MES-SA/DX5 cells. In the test on N6/ADR cells, the “IC50 ratio between resistant and non-resistant cells” value turned out to be 1.019.

`CCCOC(=O)c1[nH]c2c(c1C)C(O)CC(c1ncco1)C2` (centres unmarked) [SMS291, propyl-4-hydroxy-3-methyl-6-(oxazol-2-yl)-4,5,6,7-tetrahydro-1H-indole-2-carboxylate]: the “prevention of covalent binding of EBI” value in test [1] is listed as “did not prevent the covalent binding of EBI to the colchicine binding site”. The IC50 is 510 nM with NALM6 cells (Homo sapiens, NALM-6); 531 nM in the test on RPMI-DOX40 cells; 350 nM in the test with N6/ADR cells; 978 nM in the test on RPMI 8226 cells (Homo sapiens). Moreover, the “IC50 ratio between resistant and non-resistant cells” value with RPMI-DOX40 cells is 0.543; with N6/ADR cells, 0.686.

`CCCOC(=O)c1[nH]c2c(c1C)C(=O)CN(c1ncco1)C2` [SMS294, Propyl 3-methyl-6-(oxazol-2-yl)-4-oxo-4,5,6,7-tetrahydro-1H-pyrrolo[2,3-c]pyridine-2-carboxylate]: the IC50 with NALM6 cells (Homo sapiens, NALM-6) was found to be 907 nM; in the test on RPMI-DOX40 cells, 1060 nM; with N6/ADR cells it was 1940 nM; with RPMI 8226 cells (Homo sapiens), 666 nM. The “IC50 ratio between resistant and non-resistant cells” value is listed as 1.598 in the test on RPMI-DOX40 cells and 2.138 in the test with N6/ADR cells.

On to `CCC1=C[C@@H]2CN(C1)Cc1c([nH]c3ccccc13)[C@@](C(=O)OC)(c1cc3c(cc1OC)N(C)[C@H]1[C@@](O)(C(=O)OC)[C@H](OC(C)=O)[C@]4(CC)C=CCN5CC[C@]31[C@@H]54)C2` [Vinorelbine], for which the IC50 is 9 nM with A2780 cells (Homo sapiens); 28 nM in the test on MCF7-VP cells (Homo sapiens); 64 nM with MES-SA cells (Homo sapiens); more than 1000 nM in the test with MES-SA/DX5 cells (Homo sapiens); 22 nM with NCI-H69 cells (Homo sapiens); more than 1000 nM in the test with NCI-H69 VCR/R cells (Homo sapiens). Also, the IC50 in the test on MCF7 cells (Homo sapiens) turned out to be 22 nM; with A2780ADR cells (A2780 ADR), 2700 nM. Also, the “IC50 ratio between resistant and non-resistant cells” value in the test with MCF7-VP cells is reported as 1.273; in the test with MES-SA/DX5 cells, more than 15.625; in the test on NCI-H69 VCR/R cells, more than 45.454; in the test with A2780ADR cells, 300.000. The “effectiveness in subline overexpressing PgP” value in the test on MES-SA/DX5 cells is “less effective in the subline overexpressing PgP”.

Epothilone: the IC50 with A2780 cells was 2.7 nM; in the test on MCF7-VP cells, 456 nM; in the test with MES-SA cells, 52 nM; in the test with MES-SA/DX5 cells it was 187 nM; in the test on NCI-H69 cells, 88 nM; in the test with NCI-H69 VCR/R cells it was more than 1000 nM. The IC50 in the test on MCF7 cells is 220 nM; with A2780ADR cells, more than 1000 nM. Further, the “IC50 ratio between resistant and non-resistant cells” value in the test on MCF7-VP cells was 2.073; with MES-SA/DX5 cells it was 3.613; with NCI-H69 VCR/R cells, more than 11.364; in the test on A2780ADR cells, more than 370.370.
